Literature values in PMC3273554 (Molecular Pharmaceutics, 2011).

Legend:
[1] = system: melanoma, BRAF V600E
[2] = system: B16F10; details: delivered with poly(I:C) and anti-CD40, boosted; prophylactic B16F10 model
[3] = system: T cells; details: intracellular IFN-γ staining
[4] = system: HLA-A201; details: 100µg (63.8nmol) with 50µg PADRE T helper epitope in IFA

CCCS(=O)(=O)Nc1ccc(F)c(C(=O)c2c[nH]c3ncc(-c4ccc(Cl)cc4)cc23)c1F [vemurafenib]
Response rate in trials [1]: ≤ 81%

SIYDFFVWL [deltaV]
Tumor growth delay compared to wild type peptide [2]: no increased growth delay | T cell responsiveness to Trp2 [3]: increased T cell responsiveness

SMYDFFVWL [Trp2 2M]
IFN-γ elicited compared to vaccination with wild type peptide [4]: higher amounts of IFN-γ
